Test [1] concerns cultured human mast cells (CHMC). As to the kind of experiment: CHMC low cell density ionomycin activation: tryptase assay. In kind it is cell-based. The following applies: Low Density CHMC, ionomycin activation, tryptase readout, read-out: CHMC Ionomycin Tryptase.
The test system is the same in test [2]. As to the kind of experiment: CHMC low cell density IgE activation: tryptase and LTC4 assays. The following applies: Low Density CHMC, anti-IgE activation, tryptase readout, read-out: CHMC anti-IgE Tryptase. The test is classed as cell-based. The gist of the method:
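Degranulation measured after 30 min anti-IgE challenge at 37° C of CHMC plated at 1000-1500 cells/well following 1 h preincubation. Readouts: LTC4 by ELISA on donor-specific diluted supernatants, and tryptase activity from a 30 min room-temperature substrate reaction.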

With `C=CCNc1ncc(Br)c(Nc2cccc(O)c2)n1` [Compound R925822, N2-Allyl-5-bromo-N4-(3-hydroxyphenyl)-2,4-pyrimidinediamine], the IC50 in test [1] (Homo sapiens, Mast cell) is over 10 µM; in test [2] (Homo sapiens, Mast cell), over 10 µM.

On to `COc1ccc(Nc2nc(Nc3cccc(O)c3)ncc2F)cc1Cl` [Compound R926945, N4-(3-Chloro-4-methoxyphenyl)-5-fluoro-N2-(3-hydroxyphenyl)-2,4-pyrimidinediamine], for which the IC50 in test [1] (Homo sapiens, Mast cell) was over 10 µM; in test [2] (Homo sapiens, Mast cell), 0.457 µM.

On to `Fc1cnc(Nc2ccc3c(c2)OCCO3)nc1Nn1cccc1` [Compound R935277, N2-(3,4-Ethylenedioxyphenyl)-5-Fluoro-N4-(1H-pyrrol-1-yl)-2,4-pyrimidinediamine], for which the IC50 in test [1] (Homo sapiens, Mast cell) turned out to be 8.9 µM; in test [2] (Homo sapiens, Mast cell), 22.9 µM.

`Fc1cnc(NCc2csc3ccccc23)nc1NCc1csc2ccccc12` [Compound R945145, N2,N4-Bis(benzothiophen-3-ylmethyl)-5-fluoro-2,4-pyrimidinediamine]: the IC50 in test [1] (Homo sapiens, Mast cell) is over 10 µM; in test [2] (Homo sapiens, Mast cell) it was over 10 µM.

`Nc1cc(Cl)cc(Nc2ccnc(Nc3cc(N)cc(Cl)c3)n2)c1` [Compound R950133, N2,N4-Bis(3-amino-5-chlorophenyl)-2,4-pyrimidinediamine]: the IC50 in test [1] (Homo sapiens, Mast cell) was over 10 µM; in test [2] (Homo sapiens, Mast cell) it was 2.2 µM.

`CC(C)(CO)NC(=O)c1cc2cc(Nc3ncc(F)c(Nc4cccc(O)c4)n3)ccc2o1` [Compound R926715, 5-Fluoro-N2-[2-(2-hydroxy-1,1-dimethylethylamino)carbonylbenzofuran-5-yl]-N4-(3-hydroxyphenyl)-2,4-pyrimidinediamine]: the IC50 is over 10 µM in test [1] (Homo sapiens, Mast cell) and 0.588 µM in test [2] (Homo sapiens, Mast cell).

Take `CC(C)(C)C(=O)Nc1cccc(Nc2ncc(F)c(Nc3cccc(O)c3)n2)c1` [Compound R940275, N2-(3-tert-Butylcarbonylaminophenyl)-N4-(3-hydroxyphenyl)-5-fluoro-2,4-pyrimidinediamine]: the IC50 is over 10 µM in test [1] (Homo sapiens, Mast cell) and 0.862 µM in test [2] (Homo sapiens, Mast cell).

With `CC(C)c1ccc(Nc2ncc(F)c(Nc3cccc(O)c3)n2)cc1` [Compound R926778, 5-Fluoro-N4-(3-hydroxyphenyl)-N2-(4-isopropylphenyl)-2,4-pyrimidinediamine], the IC50 was over 10 µM in test [1] (Homo sapiens, Mast cell) and 0.414 µM in test [2] (Homo sapiens, Mast cell).

On to `COC(=O)c1ccc(Nc2ncc(F)c(Nc3ccc(C(=O)OC)c(OC)c3)n2)cc1OC` [Compound R945065, N2,N4-Bis(3-methoxy-4-methoxycarbonylphenyl)-5-fluoro-2,4-pyrimidinediamine], for which the IC50 is over 10 µM in test [1] (Homo sapiens, Mast cell) and 1.43 µM in test [2] (Homo sapiens, Mast cell).

`c1ccc(-c2ccccc2Nc2ccnc(Nc3ccccc3-c3ccccc3)n2)cc1` [Compound R925804, N2,N4-Bis(2-phenylphenyl)-2,4-pyrimidinediamine]: the IC50 in test [1] (Homo sapiens, Mast cell) was over 10 µM; in test [2] (Homo sapiens, Mast cell), over 10 µM.

Consider `Oc1cccc(Nc2nc(Nc3cccc(-c4cc[nH]n4)c3)ncc2F)c1` [Compound R926841, 5-Fluoro-N4-(3-hydroxyphenyl)-N2-[3-(1H-pyrazol-3-yl)phenyl]-2,4-pyrimidinediamine], for which the IC50 is over 10 µM in test [1] (Homo sapiens, Mast cell) and 0.551 µM in test [2] (Homo sapiens, Mast cell).

For the molecule `COC(=O)c1ccc(CNc2nc(Nc3cccc(O)c3)ncc2C#N)cc1` [Compound R925821, 5-Cyano-N2-(3-hydroxyphenyl)-N4-(methoxycarbonylbenzyl)-2,4-pyrimidinediamine], the IC50 in test [1] and in test [2] was over 10 µM throughout.

For the molecule `CCCCCCOc1ccc(Nc2cc(Nc3ccc4c(c3)OCCO4)ncc2F)cc1` [Compound R920672, N4-(4-n-Hexyloxyphenyl)-N2-(3,4-ethylenedioxyphenyl)-5-fluoro-2,4-pyridinediamine], the IC50 in test [1] (Homo sapiens, Mast cell) was over 10 µM; in test [2] (Homo sapiens, Mast cell) it was over 10 µM.

For `Oc1cccc(Nc2nc(NCC3COc4ccccc4O3)ncc2F)c1` (stereo not drawn) [Compound R950214, N2-(2,3-Dihydro-1,4-benzodioxin-2-ylmethyl)-5-fluoro-N4-(3-hydroxyphenyl)-2,4-pyrimidinediamine], the IC50 in test [1] (Homo sapiens, Mast cell) was over 10 µM; in test [2] (Homo sapiens, Mast cell) it was 10 µM.

Take `COC(=O)c1cc2cc(Nc3ncc(F)c(Nc4ccc(Cl)c(Cl)c4)n3)ccc2o1` [Compound R927027, N4-(3,4-Dichlorophenyl)-5-fluoro-N2-(2-methoxycarbonylbenzofuran-5-yl)-2,4-pyrimidinediamine]: the IC50 in test [1] (Homo sapiens, Mast cell) is over 10 µM; in test [2] (Homo sapiens, Mast cell), over 10 µM.

For the molecule `Fc1cnc(NCCc2ccccc2)nc1Nc1ccc2c(c1)OCCO2` (racemic) [Compound R908697, (±)-N4-(3,4-Ethylenedioxyphenyl)-5-fluoro-N2-(2-phenylethyl)-2,4-pyrimidinediamine], the IC50 in test [1] (Homo sapiens, Mast cell) was over 10 µM; in test [2] (Homo sapiens, Mast cell), over 10 µM.

With `COCCOc1cccc(Nc2ncc(F)c(Nc3cccc(OCCOC)c3)n2)c1` [Compound R935076, N2,N4-Bis[3-(2-methoxyethyl)oxyphenyl]-5-fluoro-2,4-pyrimidinediamine], the IC50 in test [1] (Homo sapiens, Mast cell) was over 10 µM; in test [2] (Homo sapiens, Mast cell), 4.15 µM.

`Fc1cnc(Nc2ccc(OCc3ccccc3)c(C(F)(F)F)c2)nc1Nc1ccc(OCc2ccccc2)c(C(F)(F)F)c1` [Compound R950090, N2,N4-Bis(4-benzyloxy-3-trifluoromethylphenyl)-5-fluoro-2,4-pyrimidinediamine]: the IC50 in test [1] (Homo sapiens, Mast cell) was over 10 µM; in test [2] (Homo sapiens, Mast cell), over 10 µM.

Turning to `CNC(=O)COc1cccc(Nc2ncc(F)c(Nc3ccc4c(c3)C(=NO)CCC4)n2)c1` [Compound R926948, 5-Fluoro-N4-(1,2,3,4-tetrahydro-1-hydroxyiminonaphthalen-7-yl)-N2-[3-[(N-methylamino)carbonylmethyleneoxy]phenyl]-2,4-pyrimidinediamine], the IC50 in test [1] was over 10 µM; in test [2] it was 0.246 µM.

As to `Oc1cccc(Nc2ncc(F)c(NCc3csc4ccccc34)n2)c1` [Compound R945146, N4-(Benzothiophen-3-ylmethyl)-5-fluoro-N2-(3-hydroxyphenyl)-2,4-pyrimidinediamine], the IC50 in test [1] (Homo sapiens, Mast cell) is over 10 µM; in test [2] (Homo sapiens, Mast cell) it was 3.76 µM.

As for `COC(=O)C(CC(C)C)Nc1ncc(C#N)c(NC(CC(C)C)C(=O)OC)n1` (stereo not drawn) [Compound R925815, N2,N4-Bis(1-methoxycarbonyl-3-methylbutyl)-5-cyano-2,4-pyrimidinediamine], the IC50 is over 10 µM in test [1] (Homo sapiens, Mast cell) and over 10 µM in test [2] (Homo sapiens, Mast cell).

Consider `Cc1cc(Nc2ncc(F)c(Nc3cccc(C(C)(C)C)c3)n2)cc(Cl)c1O` [Compound R940271, N4-(3-tert-Butylphenyl)-N2-(3-chloro-4-hydroxy-5-methylphenyl)-5-fluoro-2,4-pyrimidinediamine], for which the IC50 in test [1] (Homo sapiens, Mast cell) is 6.82 µM; in test [2] (Homo sapiens, Mast cell), 0.401 µM.

As to `CC(C)(CO)c1ccc(Nc2nc(Nc3ccc(OCCO)cc3)ncc2F)cc1` [Compound R935158, 5-Fluoro-N4-[4-(2-hydroxy-1,1-dimethylethyl)phenyl]-N2-[4-(2-hydroxyethoxy)phenyl]-2,4-pyrimidinediamine], the IC50 was over 10 µM in test [1] (Homo sapiens, Mast cell) and 0.551 µM in test [2] (Homo sapiens, Mast cell).

With `Oc1cccc(Nc2nc(NCc3cccnc3)ncc2F)c1` [Compound R945165, 5-Fluoro-N4-(3-hydroxyphenyl)-N2-(3-pyridylmethyl)-2,4-pyrimidinediamine], the IC50 in test [1] (Homo sapiens, Mast cell) is over 10 µM; in test [2] (Homo sapiens, Mast cell), over 10 µM.
